Values of other authors as cited in patent US20170135989A1, “ALLISARTAN ISOPROXIL SOLID DISPERSION AND PHARMACEUTICAL COMPOSITION” (SHENZHEN SALUBRIS PHARMACEUTICALS CO., LTD, priority 2014, published 2017).

How the values were obtained:
[1] = from CN200680000397.8
angiotensin II receptor = molecular target: T1, angiotensin II receptor (Homo sapiens, UniProt P30556); details: from CN200680000397.8; compared with products of the same type (such as losartan)
T1 sequence (P30556 1-359): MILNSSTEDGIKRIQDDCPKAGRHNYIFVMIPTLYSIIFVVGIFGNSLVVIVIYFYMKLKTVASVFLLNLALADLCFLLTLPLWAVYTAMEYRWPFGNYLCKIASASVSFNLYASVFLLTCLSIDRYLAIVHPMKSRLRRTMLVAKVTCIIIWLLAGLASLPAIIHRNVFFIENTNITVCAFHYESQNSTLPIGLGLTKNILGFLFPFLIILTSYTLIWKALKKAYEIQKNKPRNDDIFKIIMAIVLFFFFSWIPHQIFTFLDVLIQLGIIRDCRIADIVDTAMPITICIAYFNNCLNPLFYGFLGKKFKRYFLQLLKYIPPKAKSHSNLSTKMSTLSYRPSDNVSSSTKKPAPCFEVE

In the case of `CCCCc1nc(Cl)c(C(=O)OCOC(=O)OC(C)C)n1Cc1ccc(-c2ccccc2-c2nnn[nH]2)cc1` [Allisartan isoproxil, 2-butyl-4-chloro-1-[2′-(1H-tetrazol-5-yl)-1,1′-biphenyl-methyl]-imidazole-5-carboxylic acid, 1-[(isopropoxy)-carbonyloxy]-, methyl ester], the Solubility in water is given as “low”, the Toxicity [1] is given as “low toxicity” and the Antihypertensive effect (angiotensin II receptor) is given as “better antihypertensive effect than products of the same type”.
